Laboratory results reported in PMC7699381, “Rare-Earth Metal Complexes of the Antibacterial Drug Oxolinic Acid: Synthesis, Characterization, DNA/Protein Binding and Cytotoxicity Studies” (Molecules, 2020).
Like-named read-outs stand apart in the source and are kept apart here.

Tests used:
Apo-transferrin (apo-Tf) = target: T1, Apo-transferrin (apo-Tf) (Homo sapiens, UniProt P02787); assay: Fluorescence quenching of apo-transferrin; assay type: binding; conditions: for Ka (association binding constant), apo-Tf / n (Hill Coefficient), apo-Tf / n (Number of Binding Sites), apo-Tf / Ksv (Stern-Volmer constant), apo-Tf / Kq (bimolecular quenching constant), apo-Tf / fa (fraction of fluorophore accessible to the quencher), apo-Tf / Kd: 298 K; for Ksv (Stern-Volmer constant), apo-Tf / quenching effect on apo-Tf fluorescence peak: 1 µM apo-Tf; for Ksv (Stern-Volmer constant), apo-Tf: 0–8 µM compound, pH 7.4; for Kq (bimolecular quenching constant), apo-Tf: from KSV = Kq τ0; for fa (fraction of fluorophore accessible to the quencher), apo-Tf: modified Stern-Volmer; for quenching effect on apo-Tf fluorescence peak: compound up to 8 µM, λex 295 nm
T1 construct: purchased Sigma Aldrich Chemical Co. (Schnelldorf, Germany)
T1 sequence (P02787 20-698): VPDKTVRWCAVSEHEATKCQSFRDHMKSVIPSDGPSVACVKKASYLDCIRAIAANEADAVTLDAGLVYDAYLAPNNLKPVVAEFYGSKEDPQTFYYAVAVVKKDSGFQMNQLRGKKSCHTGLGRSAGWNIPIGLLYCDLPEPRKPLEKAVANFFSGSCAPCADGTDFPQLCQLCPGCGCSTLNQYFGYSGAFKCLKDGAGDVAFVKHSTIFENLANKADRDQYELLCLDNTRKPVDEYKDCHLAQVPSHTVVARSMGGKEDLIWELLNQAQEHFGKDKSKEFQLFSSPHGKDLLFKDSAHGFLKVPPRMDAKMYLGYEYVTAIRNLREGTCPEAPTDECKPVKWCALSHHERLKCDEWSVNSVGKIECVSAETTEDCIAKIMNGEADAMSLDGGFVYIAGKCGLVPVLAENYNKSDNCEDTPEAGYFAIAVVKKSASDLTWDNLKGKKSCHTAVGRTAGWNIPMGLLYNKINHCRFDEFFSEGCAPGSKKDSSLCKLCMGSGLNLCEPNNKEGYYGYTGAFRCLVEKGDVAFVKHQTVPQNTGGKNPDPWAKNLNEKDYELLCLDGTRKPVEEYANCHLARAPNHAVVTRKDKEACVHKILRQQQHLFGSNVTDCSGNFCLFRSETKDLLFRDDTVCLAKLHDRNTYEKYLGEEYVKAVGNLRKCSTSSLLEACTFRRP

EB-DNA system (CT-DNA) = assay: Competitive binding assay with ethidium bromide (EB) through fluorescence spectroscopy; set-up: species or system calf; conditions: 10 µM CT-DNA, 2 µM EB; for Ksv (Stern-Volmer quenching constant, EB-DNA system): 0–40 µM compound, λex 500 nm; for K50 (EB Displacement Assay): concentration corresponding to 50% binding
From the text: The manner of binding to the DNA macromolecule can be investigated through competitive binding studies with ethidium bromide (3,8-diamino-5-ethyl-6-phenylphenanthridinium bromide), a fluorescent dye; due to its aromatic ring, it can intercalate between two adjacent base pairs in the DNA structure and form a complex which emits fluorescent light; displacing EB results in a quenching effect. The Stern-Volmer constant (KSV) and the dissociation constant (K50) have been calculated from the resulting data.
Competitive binding studies were carried out on a Jasco FP 6500 fluorometer at room temperature, using quartz cells of 1 cm path-length. The fluorescence spectra were recorded on 1.6 mL samples containing 10 µM CT-DNA and 2 µM EB in the absence and presence of increasing amounts (0–40 µM with an increment of 5 µM) of complexes and free ligands, respectively, after being kept in contact for 10 min at room temperature, under continuous stirring and in the dark. The excitation wavelength used was 500 nm and the spectra was recorded in the 520–800 nm range. Two control samples were used, the first one containing DMSO, DNA and EB and the second one just the complex.
Data from the assay can be interpreted using the classical Stern-Volmer equation (Equation (3)):(3) F0/F=1+ KSV·[Q] where F0 and F are the fluorescence intensities of the EB-DNA samples in the absence and presence of the tested compounds and [Q] is the concentration of the compound; KSV is the Stern-Volmer constant and can be calculated from the plot of F0/F vs. [Q] as the slope.
The ratio of binding relative to the control sample exposed only to DMSO was plotted against the logarithm of concentration. The data points were fitted using the modified Hill function with offset (Origin®) (Equation (4)):(4) y=A1+(A2−A1)×x^n/K50^n+x^n where y is the ratio of binding (F/F0) and x is the concentration, A1 is the minimum of y values, A2 is the maximum of y values, K50 is the concentration corresponding to 50% binding and n is the Hill coefficient.

[1] = target: T2, Human serum albumin (HSA) (Homo sapiens, UniProt P02768)
T2 sequence (P02768 25-609): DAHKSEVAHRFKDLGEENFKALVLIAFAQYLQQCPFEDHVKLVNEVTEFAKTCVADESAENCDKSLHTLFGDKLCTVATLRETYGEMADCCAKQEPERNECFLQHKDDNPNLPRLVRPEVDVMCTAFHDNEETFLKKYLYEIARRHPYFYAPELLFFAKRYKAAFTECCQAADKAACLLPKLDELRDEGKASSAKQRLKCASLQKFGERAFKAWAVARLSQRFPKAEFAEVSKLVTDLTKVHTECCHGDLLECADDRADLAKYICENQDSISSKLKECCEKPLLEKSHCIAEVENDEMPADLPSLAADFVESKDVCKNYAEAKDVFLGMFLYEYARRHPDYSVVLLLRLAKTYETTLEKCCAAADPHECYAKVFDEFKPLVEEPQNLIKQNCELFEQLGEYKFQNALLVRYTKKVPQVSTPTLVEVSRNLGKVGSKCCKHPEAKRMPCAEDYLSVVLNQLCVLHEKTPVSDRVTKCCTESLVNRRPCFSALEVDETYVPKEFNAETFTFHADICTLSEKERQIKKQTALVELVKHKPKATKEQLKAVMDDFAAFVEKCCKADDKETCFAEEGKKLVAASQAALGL

[2] = system: MDA-MB 231 (human breast adenocarcinoma); assay: MTS cytotoxicity assay, MDA-MB 231 cells; assay type: cell-based
Procedure: (§1) For the evaluation of the cytotoxic effects of the complexes and ligand two human cancer cell lines were used, namely MDA-MB 231 (human breast adenocarcinoma) and LoVo (human colon adenocarcinoma); a normal cell line, human umbilical vein endothelial cells (HUVEC), was used as a reference. […] After 24 h and 48 h, respectively, cell viability was evaluated through MTS assay (data shown in Figures S16–S18) and the IC50 values were calculated (Table 5). The cytotoxicity assay is based on the ability of metabolically active cells to reduce MTS, a yellow tetrazolium salt, to the colored formazan, soluble in the culture medium; the concentration of formazan can be spectrophotometrically determined. […] PES is a cationic dye with high chemical stability that binds to MTS and forms a stable solution. […] The reduced MTS to formazan was spectrophotometrically measured at λ = 492 nm. The test was run on two cancer cell lines, LoVo and MDA-MB 231, and on a normal cell line, HUVEC. […] Cell viability data were obtained in triplicate (n = 3) and expressed as mean values ± standard deviations (SD). […] All assays were performed in 96-well microtiter plates with flat bottom (Falcon), using CellTiter 96 Aqueous One Solution Cell Proliferation Assay (Promega), an MTS-based colorimetric assay. The formazan was spectrophotometrically measured using the Tecan GENios Spectrophotometer.

[3] = system: HUVEC (normal human umbilical vein endothelial cells); assay: MTS cytotoxicity assay, HUVEC normal cells; assay type: cell-based; conditions: 48 h of incubation
Procedure: as §1

[4] = system: LoVo (human colon adenocarcinoma); assay: MTS cytotoxicity assay, LoVo cells; assay type: cell-based; conditions: 48 h of incubation
Procedure: as §1

[5] = target: T2, Human serum albumin (HSA); assay: Fluorescence quenching of human serum albumin; conditions: for quenching effect on HSA fluorescence peak / Ksv (Stern-Volmer constant), HSA: 2.5 µM HSA; for quenching effect on HSA fluorescence peak: compound up to 8 µM, λex 280 nm; for Ka (association binding constant), HSA / n (Hill Coefficient), HSA / n (Number of Binding Sites), HSA / Ksv (Stern-Volmer constant), HSA / Kq (bimolecular quenching constant), HSA / fa (fraction of fluorophore accessible to the quencher), HSA / Kd: 298 K; for Ksv (Stern-Volmer constant), HSA: 0–8 µM compound, pH 7.4; for Kq (bimolecular quenching constant), HSA: from KSV = Kq τ0; for fa (fraction of fluorophore accessible to the quencher), HSA: modified Stern-Volmer; for Kd: HSA
[6] = system: CT-DNA (double-stranded calf-thymus DNA); assay: DNA binding by UV-Vis spectra (titration with CT-DNA); conditions: 20 µM compound, 0–40 µM DNA, Tris-HCl pH 7.4, room temperature
[7] = Homo sapiens, MDA-MB-231, 48 h of incubation

Compound	Ka (association binding constant), apo-Tf (Apo-transferrin (apo-Tf))	n (Hill Coefficient), apo-Tf (Apo-transferrin (apo-Tf))	n (Number of Binding Sites), apo-Tf (Apo-transferrin (apo-Tf))	Ksv (Stern-Volmer constant), apo-Tf (Apo-transferrin (apo-Tf))	Kq (bimolecular quenching constant), apo-Tf (Apo-transferrin (apo-Tf))	fa (fraction of fluorophore accessible to the quencher), apo-Tf (Apo-transferrin (apo-Tf))	Kd (Apo-transferrin (apo-Tf); read-out: Kd, apo-Tf)	Ksv (Stern-Volmer quenching constant, EB-DNA system) (EB-DNA system (CT-DNA))	K50 (EB Displacement Assay) (EB-DNA system (CT-DNA))	Kd [1]	IC50 ([2]; 48 h of incubation)	IC50 [3]	IC50 [4]	quenching effect on HSA fluorescence peak [5]	Ka (association binding constant), HSA [5]	n (Hill Coefficient), HSA [5]	n (Number of Binding Sites), HSA [5]	Ksv (Stern-Volmer constant), HSA [5]	Kq (bimolecular quenching constant), HSA [5]	fa (fraction of fluorophore accessible to the quencher), HSA [5]	also measured
[Gd(oxo)(OH)(H2O)]·0.5H2O [Gd oxo]	(0.58 ± 0.25) × 10^4 M^−1	1.24 ± 0.45	0.76 ± 0.03	(17.51 ± 1.06) × 10^4 M^−1	1.751e+13 M⁻¹ s⁻¹	0.73 ± 0.02	8.8 ± 6.57 µM	(1.18 ± 0.01) × 10^4	47.75 ± 25.22 µM	5.32 ± 0.69 µM	73.8 ± 18.5 µM	> 200 µM	56.5 ± 3.83 µM	~ 47%	(1.98 ± 0.82) × 10^5 M^−1	1.81 ± 0.26	1.06 ± 0.03	(5.77 ± 0.84) × 10^4 M^−1	5.77e+12 M⁻¹ s⁻¹	1.39 ± 0.15	
CCn1cc(C(=O)O)c(=O)c2cc3c(cc21)OCO3 [oxo, 5-ethyl-5,8-dihydro-8-oxo-l,3 dioxolo[4,5-g]quinoline-7-carboxylic acid, reference compound]		1.89 ± 1.35	0.67 ± 0.00	(17.45 ± 0.95) × 10^4 M^−1	1.745e+13 M⁻¹ s⁻¹	0.36±0.01		(1.05 ± 0.02) × 10^4	42.07 ± 18.48 µM							1.62 ± 0.39	0.90 ± 0.01	(1.95 ± 0.38) × 10^4 M^−1	1.95e+12 M⁻¹ s⁻¹	1.92 ± 0.35	Kd (Apo-transferrin (apo-Tf); Kd, apo-Tf): 8.11 ± 7.34 µM; IC50 [2, 7]: 43.5 ± 4.94 µM; IC50 ([3]; Homo sapiens, HUVEC): > 200 µM; IC50 ([4]; Homo sapiens, LoVo): > 200 µM; Ksv (Stern-Volmer constant), HSA ([5]; listed as oxolinic acid): 1.95 (± 0.38) × 10^4 M^−1; Kd ([5]; Ka (association binding constant)): 92.6 µM; Kd ([5]; Kd): 7.26 ± 2.66 µM
CCn1cc(C(=O)[O][Eu]([OH])[O]C(=O)c2cn(CC)c3cc4c(cc3c2=O)OCO4)c(=O)c2cc3c(cc21)OCO3.O [Eu oxo, [Eu(oxo)(OH)(H2O)]]	(2.74 ± 0.41) × 10^4 M^−1	0.95 ± 0.21	0.88 ± 0.01	(16.55 ± 0.94) × 10^4 M^−1	1.655e+13 M⁻¹ s⁻¹	0.81 ± 0.02	8.27 ± 4.17 µM	(1.26 ± 0.02) × 10^4	40.15 ± 11.82 µM	5.56 ± 0.86 µM	73.7 ± 19.8 µM	> 200 µM	107 ± 16 µM	~ 58%	(4.75 ± 0.80) × 10^5 M^−1	1.33 ± 0.18	1.11 ± 0.01	11.25 (± 0.92) × 10^4 M^−1	1.125e+13 M⁻¹ s⁻¹	0.94 ± 0.04	quenching effect on apo-Tf fluorescence peak (Apo-transferrin (apo-Tf)): 50%; Kb (DNA binding constant) [6]: 10.72 (± 2.47) × 10^5 L∙mol^−1; Ksv (Stern-Volmer constant), HSA ([5]; listed as Eu-oxo): (11.25 ± 0.92) × 10^4 M^−1
CCn1cc(C(=O)[O][Y]([OH])[O]C(=O)c2cn(CC)c3cc4c(cc3c2=O)OCO4)c(=O)c2cc3c(cc21)OCO3.O [Y oxo, [Y(oxo)(OH)(H2O)]]	4.40(±1.09) × 10^4 M^−1	1.58 ± 0.23	0.94 ± 0.01	6.52 (± 0.56) × 10^4 M^−1	6.52e+12 M⁻¹ s⁻¹	1.15 ± 0.07	8.34 ± 1.71 µM	8.38 (±0.29) × 10^3	28.07 ± 4.44 µM	6.3 ± 2.47 µM	33.2 ± 14.9 µM	> 200 µM	90.4 ± 9.3 µM		(2.04 ± 0.74) × 10^5 M^−1	1.52 ± 0.47	1.44 ± 0.03	(10.53 ± 0.95) × 10^4 M^−1	1.053e+13 M⁻¹ s⁻¹	1.07 ± 0.05	quenching effect on apo-Tf fluorescence peak (Apo-transferrin (apo-Tf)): 35%; Ksv (Stern-Volmer constant), apo-Tf (Apo-transferrin (apo-Tf); listed as Y-oxo): (6.52 ± 0.56) × 10^4 M^−1; Ka (association binding constant), apo-Tf (Apo-transferrin (apo-Tf); listed as Y-oxo): (4.40 ± 1.09) × 10^4 M^−1; Ksv (Stern-Volmer quenching constant, EB-DNA system) (EB-DNA system (CT-DNA); listed as Y-oxo): (8.38 ± 0.29) × 10^3
[Tb(oxo)(OH)(H2O)] · 0.5 H2O [Tb oxo]	(1.28 ± 0.17) × 10^4 M^−1	1.57 ± 0.33	0.81 ± 0.01	19.45 (± 1.10) × 10^4 M^−1	1.945e+13 M⁻¹ s⁻¹	0.77 ± 0.01	5.57 ± 1.22 µM	(1.18 ± 0.00) × 10^4	20.28 ± 1.15 µM	5.97 ± 0.89 µM	> 200 µM	> 200 µM	40.6 ± 7.43 µM	52.63%	6.83(±1.33) × 10^5 M^−1	1.58 ± 0.20	1.18 ± 0.01	(2.84 ± 0.70) × 10^4 M^−1	2.84e+12 M⁻¹ s⁻¹	2.13 ± 0.45	quenching effect on apo-Tf fluorescence peak (Apo-transferrin (apo-Tf)): 47.62%; Ksv (Stern-Volmer constant), apo-Tf (Apo-transferrin (apo-Tf); listed as Tb-oxo): (19.45 ± 1.10) × 10^4 M^−1; Ka (association binding constant), HSA ([5]; listed as Tb-oxo): (6.83 ± 1.33) × 10^5 M^−1
COc1cccc2c1C(=O)c1c(O)c3c(c(O)c1C2=O)C[C@@](O)(C(=O)CO)C[C@@H]3O[C@H]1C[C@H](N)[C@H](O)[C@H](C)O1 [ADR, adriamycin, reference compound]																					IC50 [2, 7]: 7.85 ± 0.7 µM
N.N.[Cl][Pt][Cl] [Cis-Pt, Cisplatin, reference compound]												28.5 ± 6.28 µM	40.1 ± 13.9 µM								
